For eight compounds, Kd results are on record in BindingDB's records for doi:10.1021/jm040037k (Abbott Laboratories, 2004).

Square brackets hold non-standard residues; d marks the D form. Peptide text beside a SMILES is read from it. * marks the point of attachment. Tle = CC(C)(C)[C@H](N)C(=O)O; NMeA = CN[C@@H](C)C(=O)O; βNA = c1ccc2cc(N*)ccc2c1

This assay deals with T1, E3 ubiquitin-protein ligase XIAP [241-356] (Homo sapiens, UniProt P98170).
T1 construct: 241-356
T1 sequence (P98170 241-356): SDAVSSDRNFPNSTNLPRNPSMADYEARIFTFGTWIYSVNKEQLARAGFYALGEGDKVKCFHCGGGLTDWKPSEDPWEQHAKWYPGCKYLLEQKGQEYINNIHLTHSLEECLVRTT
Kind of assay: Ligand Binding Assay. As to conditions: pH 7.4; 22 °C. As for the experimental part: A fluorescence polarization anisotropy (FPA) competition assay was used to determine the affinities of compounds to BIR3 protein. Fluorescence polarization measurements were carried out on an Analyst 96-well plate reader. 6-Carboxyfluorescein (FAM) labeled peptides with the sequences AVPIAQK (FAM)-NH2 was used as a probe. Dissociation constants were determined from titration curves with in-house written software.
By Kd is commonly meant the free concentration of one partner at which half of the binding sites on the other are occupied at equilibrium, for simple one-to-one binding. A higher Kd goes with weaker binding. For the compound `C[C@@H](C(=O)N[C@H](C(=O)N1C[C@@H](Oc2ccccc2)C[C@H]1C(=O)N[C@@H]1CCCc2ccccc21)C(C)(C)C)N(C)C` [(2S,4S)-1-[(2S)-2-[(2S)-2-(dimethylamino)propanamido]-3,3-dimethylbutanoyl]-4-phenoxy-N-[(1R)-1,2,3,4-tetrahydronaphthalen-1-yl]pyrrolidine-2-carboxamide], the Kd was above 1000 nM.

With `C[C@@H](C(=O)N[C@H](C(=O)N1CCC[C@H]1C(=O)N[C@@H]1CCCc2ccccc21)C(C)(C)C)N(C)C` [(2S)-1-[(2S)-2-[(2S)-2-(dimethylamino)propanamido]-3,3-dimethylbutanoyl]-N-[(1R)-1,2,3,4-tetrahydronaphthalen-1-yl]pyrrolidine-2-carboxamide], the Kd was above 1000 nM.

On to `CN[C@@H](C)C(=O)N[C@H](C(=O)N1CCC[C@H]1C(=O)N[C@@H]1CCc2ccccc21)C(C)(C)C` [(2S)-N-[(1R)-2,3-dihydro-1H-inden-1-yl]-1-[(2S)-3,3-dimethyl-2-[(2S)-2-(methylamino)propanamido]butanoyl]pyrrolidine-2-carboxamide], for which binding was put at a Kd of 29 nM.

`CN[C@@H](C)C(=O)N[C@H](C(=O)N1CCC[C@H]1C(=O)Nc1cccc2ccccc12)C(C)(C)C` [H-N-Me-Ala-Tle-Pro-naphth-1-yl Amide] registered a Kd above 500 nM.

The compound `CN[C@@H](C)C(=O)N[C@H](C(=O)N1CCC[C@H]1C(=O)N[C@H]1CCc2ccccc21)C(C)(C)C` [H-N-Me-Ala-Tle-Pro-(S)-indan-1-yl Amide] displayed a Kd above 1000 nM.

Compound `CN[C@@H](C)C(=O)N[C@H](C(=O)N1CCC[C@H]1C(=O)NC1c2ccccc2-c2ccccc21)C(C)(C)C` [H-N-Me-Ala-Tle-Pro-fluoren-9-yl Amide] showed a Kd of 47 nM.

Compound `C[C@@H](C(=O)N[C@H](C(=O)N1CCC[C@H]1C(=O)N[C@@H]1CCCc2ccccc21)C1CCCCC1)N(C)C` [(2S)-1-[(2S)-2-cyclohexyl-2-[(2S)-2-(dimethylamino)propanamido]acetyl]-N-[(1R)-1,2,3,4-tetrahydronaphthalen-1-yl]pyrrolidine-2-carboxamide] displayed a Kd above 1000 nM.

As for `CN[C@@H](C)C(=O)N[C@H](C(=O)N1CCC[C@H]1C(=O)Nc1ccc2ccccc2c1)C(C)(C)C` [(2S)-1-[(2S)-3,3-dimethyl-2-[(2S)-2-(methylamino)propanamido]butanoyl]-N-(naphthalen-2-yl)pyrrolidine-2-carboxamide] (H-[NMeA]-[Tle]-Pro-βNA), the Kd was above 1000 nM.
